biological target: T1, FicD^H363A (Homo sapiens, UniProt Q9BVA6, H363A); experiment: MIDAS metabolite screen, FicD^H363A; type: binding; details: cutoff Q < 0.05 and |Log2 corrected fold change| > 2, metabolites 5 µM
T1 construct: soluble ER luminal domain (residues 105 to 458) of wild-type human FicD and three mutants; 6xHis-Sumo (N, cleaved yes); made in house; host or cells: Rosetta(DE3) E. coli
T1 sequence (Q9BVA6 105-458 H363A): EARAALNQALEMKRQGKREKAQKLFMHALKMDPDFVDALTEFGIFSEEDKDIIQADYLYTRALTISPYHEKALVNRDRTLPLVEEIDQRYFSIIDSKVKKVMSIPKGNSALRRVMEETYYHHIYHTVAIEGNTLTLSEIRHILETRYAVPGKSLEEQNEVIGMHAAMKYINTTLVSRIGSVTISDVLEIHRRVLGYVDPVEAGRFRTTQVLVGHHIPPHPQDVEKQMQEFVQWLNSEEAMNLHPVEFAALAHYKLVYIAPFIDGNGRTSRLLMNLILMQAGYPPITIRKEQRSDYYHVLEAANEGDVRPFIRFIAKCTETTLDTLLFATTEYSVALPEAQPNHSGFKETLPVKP
From the text: To identify small-molecule metabolite interactions with FicD, we applied an unbiased high-throughput screening approach known as MIDAS ([44]). Given the high concentrations of protein required for MIDAS screening, we purified the soluble ER luminal domain (residues 105 to 458) of wild-type human FicD and three mutants FicD^E234G, FicD^L258D, and FicD^H363A for screening (Fig. 1A). These mutants were selected based on their well-established biochemical features ([23], [24], [31]). All three are predicted to enhance detection of protein–metabolite interactions (PMIs) relative to FicD^WT through increased affinity for nucleotide substrates (FicD^E234G), improved solubility (FicD^L258D), and loss of catalytic turnover (FicD^H363A) (Fig. 1A). To decrease the potential for nonspecific small-molecule binding, we ensured the purity of our FicD proteins (SI Appendix, Fig. S1 A and B). As reported by other investigators ([24], [31]), we observe an increase in elution volume of the FicD^L258D mutant, consistent with its monomerization (SI Appendix, Fig. S1C).
Out of the 602 naturally occurring human metabolites in the MIDAS library, we applied a significance cutoff (q value < 0.05) to identify 12 PMIs with a Log2 (corrected fold change) of >2 and two PMIs with a Log2 (corrected fold change) <-2 in the FicD^WT screen (Fig. 1B and SI Appendix, Table S2). Hits were additionally triaged based on detection of multiple adducts of the metabolite in a single dataset (FPP and […] in Fig. 1B) and identification of the same metabolites across three or more of the FicD construct screens (Fig. 1C). Three chemical classes passed this initial triage: adenosine nucleotides, isoprenoid diphosphates, and thyroid hormone intermediates (Fig. 1 B and C and SI Appendix, Tables S2–S5).
22°C. Induced cultures were then harvested by centrifugation at 8000G for 15 minutes at 4°C and […]
Bacterial pellets were resuspended in 30-50mL of 50mM Tris pH 7.4/150mM NaCl/10% glycerol with one Roche cOmplete EDTA-Free Protease inhibitor cocktail tablet (cat no. COEDTAF-RO).
Triton-X100 to a final concentration of 0.2%, Chicken-egg lysozyme to a final concentration of 0.4ug/mL, and 2-5uL of Millipore Benzonase Nuclease (cat no. 70664) were added to bacterial suspension prior to sonication at 40-50% amplitude for 1-3 minutes in pulses of 5 seconds on and 30 seconds off on ice with a Sonics VCX 750 Ultrasonicator. Bacterial lysate was then clarified by centrifugation at 30,000 x g for 30 minutes at 4°C.
Clarified lysate was rotated with Qiagen NiNTA agarose beads (cat no. 30210) for 1-2 hours at 4°C. […]

SMILES	MIDAS protein-metabolite interaction (enrichment/depletion)
CC(C)=CCC/C(C)=C/CC/C(C)=C/COP(=O)(O)OP(=O)(O)O [FPP, farnesyl-pyrophosphate]	significantly enriched
Nc1ncnc2c1ncn2[C@@H]1O[C@H](COP(=O)(O)OP(=O)(O)O)[C@@H](O)[C@H]1O [ADP]	significantly enriched
CC(C)=CCC/C(C)=C/COP(=O)(O)OP(=O)(O)O [GPP, geranyl-pyrophosphate]	significantly enriched
